Experiments:
LAD2 mast cell line = assay: β-hexosaminidase release assay: inhibition of Compound 48/80-evoked mast cell degranulation; assay type: cell-based, human; conditions: for IC50: LAD2 cells; for efficacy: concentration response curves, Fig. 3, Compound 48/80 1.0 µM; for potency relative to DSCG: β-hexosaminidase release assays, Fig. 3; for change in inhibitory activity after photoisomerization: non-irradiated vs 365 nm irradiated
Protocol: LAD2 Cell culture The human mast cell line LAD2 was kindly provided by Dr. A. Kirshenbaum (National Institute of Allergy and Infectious Diseases, Bethesda, MD). LAD2 cells were cultured in suspension at 37 °C, 95% relative humidity and 5% CO2 in StemPro-34 Serum-free medium (Invitrogen) supplemented with 2 mM L-glutamine (Sigma Aldrich), 100 IU/mL penicillin (Sigma Aldrich), 100 µg/mL streptomycin (Sigma Aldrich) and 100 ng/ml rhSCF (Invitrogen). Cells were not allowed to grow beyond a density of 5.0 x 10^5 cells/mL and fresh medium was supplied once a week.
β-Hexosaminidase Assay β-Hexosaminidase release was measured according to a previously published method.^28 In short, 50 µL of supernatant was transferred to a 96-well plate. To this 100 µL of a 2 mg/mL solution of p-nitrophenyl- N-acetyl-D-glucosaminidine in citrate buffer pH 4.5 was added. The plate was incubated at 37 °C for 1 h. The reaction was stopped by adding 100 µL of 0.4 M glycine solution and the absorbance was measured on a plate reader at a wavelength of 405 nm. Subsequently, the percentage released β-hexosaminidase was determined by comparison with the absorption of cell lysate of the same cells using the following formula: (supernatant)/(supernatant + lysate) × 100% = % Reaased β−Hexosaminidase. [formula]
Inhibitory Activity Tests LAD2 cells were suspended in HEPES buffer at a concentration of 50,000 cells/mL. 80 µL of cell suspension was transferred to a microreaction cup to which 10 µL of inhibitor solution was added. This was incubated at 37 °C for 30 min after which 10 µL of a Compound 48/80 solution was added. Next, the cell suspension was incubated for 30 min at 37 °C and the β-hexosaminidase release was assayed.
MAC and PAC seem to have an almost 100 times greater inhibitory potency than DSCG.
Next, the difference in inhibitory activity between the two photoisomers of DAC, MAC and PAC was determined. The inhibitory activity was determined for each compound at two concentrations that were on the steep part of the concentration response curve, because at these concentrations a possible difference in inhibitory activity is best detectable. LAD2 cells were incubated with either non-irradiated solutions of DAC, MAC and PAC or with solutions that were irradiated with 365 nm light prior incubation. After evoking a degranulation with Compound 48/80, β-hexosaminidase release was determined.. […] At a concentration of 10 µM the relative difference in inhibitory activity between the two forms of PAC is 25% (see Figure 4).

[1] = Ratio of trans and cis photoisomers determined by RP-HPLC at the isosbestic point; assay type: physicochemical
Protocol: Photoswitching Experiments Irradiation experiments were performed with a Spectroline ENB-280C/FE UV lamp (365 nm) and Thor Labs OSL1-EC Fiber Illuminator (white light).
The photoswitchable behavior of DAC, MAC and PAC was studied using UV-VIS spectroscopy and RP-HPLC. The trans-isomers of DAC, MAC and PAC have a characteristic absorbance maximum between 300 and 400 nm in water. This absorbance maximum decreases when the molecules are photoswitched to their cis-isomers and a new absorbance maximum appears around 430 nm (Fig. 2A-C).^25 Isosbestic points at 405 nm (DAC), 270 nm (MAC) and 270 nm (PAC) clearly illustrate the selective isomerization and reversibility of the photoswitching process. Using RP-HPLC, the ratio of photoisomers was determined for both the non-irradiated and 365 nm-irradiated forms of DAC, MAC and PAC (Table 1). Higher photostationary states were obtained when the photoswitchable inhibitors were irradiated with 365 nm light in DMSO as compared to water (Table 1). Therefore, the compounds were switched at a high concentration in DMSO and diluted in water to obtain a maximum concentration of 1% DMSO (v/v). […]
Table 1 Ratio of trans and cis isomers of the photoswitchable inhibitors under different conditions. Ratios are determined at the isosbestic point (DAC=405 nm, MAC=270 nm, PAC=270 nm) with RP-HPLC (C18, flow 1 mL/min, MeCN and H3PO4pH=3.0).

[2] = Homo sapiens, light or radiation study, degranulation evoked by 1.0 µM Compound 48/80, non-irradiated inhibitors, 30 min pre-incubation, n=3

SMILES | inhibitory activity (LAD2 mast cell line; Compound 48/80 1.0 µM) | IC50 (LAD2 mast cell line; [2]) | efficacy (LAD2 mast cell line) | potency relative to DSCG (LAD2 mast cell line) | IC50 (LAD2 mast cell line; degranulation evoked by 1.0 µM Compound 48/80, n=3) | inhibitory activity (LAD2 mast cell line; lower concentration of Compound 48/80 (0.1 µM), data not shown) | inhibition at 10 µM (LAD2 mast cell line; Homo sapiens, LAD2, light or radiation study, concentration of 10 µM, non-irradiated form more active than irradiated form, read-out: relative difference in inhibitory activity between non-irradiated and 365 nm irradiated form) | change in inhibitory activity after photoisomerization (LAD2 mast cell line) | cis isomer in the photo stationary state (PSS) ([1]; irradiated form (365 nm)) | trans isomer in the photo stationary state (PSS) ([1]; non-irradiated form)
O=C([O-])c1cc(=O)c2c(OCc3cccc(/N=N/c4cccc(COc5cccc6oc(C(=O)[O-])cc(=O)c56)c4)c3)cccc2o1.[Na+].[Na+] [MAC, Sodium (E)-5,5'-(((diazene-1,2-diylbis(3,1-phenylene))bis(methylene))bis(oxy))bis(4-oxo-4H-chromene-2-carboxylate)] | significantly greater inhibitory activity than the original drug DSCG | 10 µM | greater efficacy than PAC | ~100 times |  |  |  |  |  | 
O=C([O-])c1cc(=O)c2c(OCC(O)COc3cccc4oc(C(=O)[O-])cc(=O)c34)cccc2o1.[Na+].[Na+] [DSCG, DiSodiumCromoGlycate, reference compound] | did not show any inhibitory activity |  |  |  | > 1000 µM | able to inhibit mast cell degranulation |  |  |  | 
O=C([O-])c1cc(=O)c2c(OCc3ccc(/N=N/c4ccc(COc5cccc6oc(C(=O)[O-])cc(=O)c56)cc4)cc3)cccc2o1.[Na+].[Na+] [PAC, Sodium (E)-5,5'-(((diazene-1,2-diylbis(4,1-phenylene))bis(methylene))bis(oxy))bis(4-oxo-4H-chromene-2-carboxylate)] | significantly greater inhibitory activity than the original drug DSCG | 28 µM |  | ~100 times |  |  | 25% | A significant difference was observed | 81% | 91%
O=C([O-])c1cc(=O)c2cc(/N=N/c3ccc4oc(C(=O)[O-])cc(=O)c4c3)ccc2o1.[Na+].[Na+] [DAC, Sodium (E)-6,6'-(diazene-1,2-diyl)bis(4-oxo-4H-chromene-2-carboxylate)] | significantly greater inhibitory activity than the original drug DSCG | 272 µM | greater efficacy than PAC |  |  |  |  | a significant change in inhibitory activity after photoisomerization was not observed |  | 
